How the values were obtained:
[1] = test system: MIA PaCa-2 (KRAS G12C) cells; assay: Cellular pERK HTRF assay (KRAS_G12C pERK); type: cell-based, human; settings: Homo sapiens, MIA PaCa-2, 4 hours incubation, read-out: G12C_pERK
In short: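 MIA PaCa-2 cells plated overnight, then exposed to compound for 4 h at 37 °C (G12C compounds). Phospho-ERK1/2 measured in lysates by HTRF (665/620 nm) after overnight antibody incubation; IC50 from percent inhibition versus log concentration.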

KRAS G12C = KRAS G12C (Homo sapiens, UniProt P01116, G12C); assay: GDP-GTP exchange assay (KRAS_G12C exchange); type: biochemical; settings: bodipy-GDP loaded KRAS G12C 2.5 nM, SOS1 150 nM, GppNHp; 2 hours pre-incubation, 2 hours reaction; read-out: G12C_exchange
Chain of KRAS G12C (P01116 1-188 isoform P01116-2 G12C): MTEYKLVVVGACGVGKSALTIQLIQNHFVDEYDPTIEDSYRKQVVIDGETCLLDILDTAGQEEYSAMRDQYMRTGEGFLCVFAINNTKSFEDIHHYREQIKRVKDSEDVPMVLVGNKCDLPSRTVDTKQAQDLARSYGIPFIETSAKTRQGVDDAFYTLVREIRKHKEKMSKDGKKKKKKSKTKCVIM
In short: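 Fluorescence exchange of bodipy-GDP for GppNHp, SOS1-driven, read at 485/520 nm; IC50 from four-parameter variable-slope fit. Both mutants used 2.5 nM final labelled protein and a 2 h compound pre-incubation. G12C reaction had 500 uM GppNHp and 150 nM SOS1 for 2 h; G12D ran 4 h.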

Row | SMILES | IC50 [1] [nM] | IC50 (KRAS G12C) [nM]
1 | C=CC(=O)N1CC[C@H](n2cnc3c(N4CC(N(C)C)C4)nc4c(F)c(-c5cccc6cccc(C)c56)c(Cl)cc4c32)C[C@H]1CC#N [Example 68, 2-((2S,4S)-1-acryloyl-4-(8-chloro-4-(3-(dimethylamino)azetidin-1-yl)-6-fluoro-7-(8-methylnaphthalen-1-yl)-1H-imidazo[4,5-c]quinolin-1-yl)piperidin-2-yl)acetonitrile] | ≤ 100 | ≤ 100
2 | C=CC(=O)N1CC[C@H](n2cnc3c(N4CC(N(C)C)C4)nc4c(F)c(-c5cccc6c5OCCO6)c(Cl)cc4c32)C[C@H]1CC#N [Example 69, 2-((2S,4S)-1-acryloyl-4-(8-chloro-7-(2,3-dihydrobenzo[b][1,4]dioxin-5-yl)-4-(3-(dimethylamino)azetidin-1-yl)-6-fluoro-1H-imidazo[4,5-c]quinolin-1-yl)piperidin-2-yl)acetonitrile] | ≤ 100 | ≤ 100
3 | CC#CC(=O)N1CC[C@H](n2cnc3c(N4CC5(CCCN5C)C4)nc4c(F)c(-c5c(C)c(Cl)cc6[nH]ncc56)c(Cl)cc4c32)C[C@H]1CC#N [Example 83a, 2-((2S,4S)-1-(but-2-ynoyl)-4-(8-chloro-7-(6-chloro-5-methyl-1H-indazol-4-yl)-6-fluoro-4-(5-methyl-2,5-diazaspiro[3.4]octan-2-yl)-1H-imidazo[4,5-c]quinolin-1-yl)piperidin-2-yl)acetonitrile] | ≤ 100 | ≤ 100
4 | C=CC(=O)N1CC[C@H](n2nnc3c(OC[C@@H]4CCCN4C)nc4c(F)c(-c5ccc(F)c(Cl)c5)c(Cl)cc4c32)C[C@H]1CC#N [Example 85, 2-((2S,4S)-1-acryloyl-4-(8-chloro-7-(3-chloro-4-fluorophenyl)-6-fluoro-4-(((S)-1-methylpyrrolidin-2-yl)methoxy)-1H-[1,2,3]triazolo[4,5-c]quinolin-1-yl)piperidin-2-yl)acetonitrile] | ≤ 100 | ≤ 100
5 | C=CC(=O)N1CC[C@H](n2cnc3c(N4CC(N(C)C)C4)nc4c(F)c(-c5cncc(Cl)c5C)c(Cl)cc4c32)C[C@H]1CC#N [Example 89, 2-((2S,4S)-1-acryloyl-4-(8-chloro-7-(5-chloro-4-methylpyridin-3-yl)-4-(3-(dimethylamino)azetidin-1-yl)-6-fluoro-1H-imidazo[4,5-c]quinolin-1-yl)piperidin-2-yl)acetonitrile] | ≤ 100 | ≤ 100
6 | CC#CC(=O)N1CC[C@H](n2nnc3c(N4CCN(C)CC4=O)nc4c(F)c(-c5cccc(Cl)c5C)c(Cl)cc4c32)C[C@H]1CC#N [Example 92, 2-((2S,4S)-1-(but-2-ynoyl)-4-(8-chloro-7-(3-chloro-2-methylphenyl)-6-fluoro-4-(4-methyl-2-oxopiperazin-1-yl)-1H-[1,2,3]triazolo[4,5-c]quinolin-1-yl)piperidin-2-yl)acetonitrile] | ≤ 100 | ≤ 100
7 | C=CC(=O)N1CC[C@H](n2nnc3c(OC[C@@H]4CCCN4C)nc4c(F)c(-c5cccc(C#N)c5C)c(Cl)cc4c32)C[C@H]1CC#N [Example 95, 3-(1-((2S,4S)-1-acryloyl-2-(cyanomethyl)piperidin-4-yl)-8-chloro-6-fluoro-4-(((S)-1-methylpyrrolidin-2-yl)methoxy)-1H-[1,2,3]triazolo[4,5-c]quinolin-7-yl)-2-methylbenzonitrile] | ≤ 100 | ≤ 100
8 | CC#CC(=O)N1CC[C@H](n2nnc3c(OC[C@@H]4CCCN4C)nc4c(F)c(-c5cccc(C#N)c5C)c(Cl)cc4c32)C[C@H]1CC#N [Example 96, 3-(1-((2S,4S)-1-(but-2-ynoyl)-2-(cyanomethyl)piperidin-4-yl)-8-chloro-6-fluoro-4-(((S)-1-methylpyrrolidin-2-yl)methoxy)-1H-[1,2,3]triazolo[4,5-c]quinolin-7-yl)-2-methylbenzonitrile] | ≤ 100 | ≤ 100
9 | Cc1c(C#N)cccc1-c1c(Cl)cc2c(nc(OC[C@@H]3CCCN3C)c3nnn([C@H]4CCN(C(=O)/C=C/CN(C)C)[C@H](CC#N)C4)c32)c1F [Example 97, 3-(8-chloro-1-((2S,4S)-2-(cyanomethyl)-1-((E)-4-(dimethylamino)but-2-enoyl)piperidin-4-yl)-6-fluoro-4-(((S)-1-methylpyrrolidin-2-yl)methoxy)-1H-[1,2,3]triazolo[4,5-c]quinolin-7-yl)-2-methylbenzonitrile] | ≤ 100 | ≤ 100

Now from value to compound:

Row | IC50 [1] [nM] | IC50 (KRAS G12C) [nM] | SMILES
10 | ≤ 100 | ≤ 100 | C=CC(=O)N1CC[C@H](n2cnc3c(N4CC(N(C)C)C4)nc4c(F)c(-c5cccc6c5OCCC6)c(Cl)cc4c32)C[C@H]1CC#N [Example 65, 2-((2S,4S)-1-acryloyl-4-(8-chloro-7-(chroman-8-yl)-4-(3-(dimethylamino)-azetidin-1-yl)-6-fluoro-1H-imidazo[4,5-c]quinolin-1-yl)piperidin-2-yl)acetonitrile]
11 | ≤ 100 | ≤ 100 | C=CC(=O)N1CC[C@H](n2cnc3c(N4CC(N(C)C)C4)nc4c(F)c(-c5c(OC)ccc6ccccc56)c(Cl)cc4c32)C[C@H]1CC#N [Example 66, 2-((2S,4S)-1-acryloyl-4-(8-chloro-4-(3-(dimethylamino)azetidin-1-yl)-6-fluoro-7-(2-methoxynaphthalen-1-yl)-1H-imidazo[4,5-c]quinolin-1-yl)piperidin-2-yl)acetonitrile]
12 | ≤ 100 | ≤ 100 | C=CC(=O)N1CC[C@H](n2cnc3c(N4CC(N(C)C)C4)nc4c(F)c(-c5ccc(F)c6ccccc56)c(Cl)cc4c32)C[C@H]1CC#N [Example 67, 2-((2S,4S)-1-acryloyl-4-(8-chloro-4-(3-(dimethylamino)azetidin-1-yl)-6-fluoro-7-(4-fluoronaphthalen-1-yl)-1H-imidazo[4,5-c]quinolin-1-yl)piperidin-2-yl)acetonitrile]
13 | ≤ 100 | ≤ 100 | CC#CC(=O)N1CC[C@H](n2cnc3c(N4CC(C)(N(C)C)C4)nc4c(F)c(-c5c(C)c(Cl)cc6[nH]ncc56)c(Cl)cc4c32)C[C@H]1CC#N [Example 81a, 2-((2S,4S)-1-(but-2-ynoyl)-4-(8-chloro-7-(6-chloro-5-methyl-1H-indazol-4-yl)-4-(3-(dimethyl-amino)-3-methylazetidin-1-yl)-6-fluoro-1H-imidazo[4,5-c]quinolin-1-yl)piperidin-2-yl)acetonitrile]
14 | ≤ 100 | ≤ 100 | COC/C=C/C(=O)N1CC[C@H](n2cnc3c(N4CC5(CCCN5C)C4)nc4c(F)c(-c5c(C)c(Cl)cc6[nH]ncc56)c(Cl)cc4c32)C[C@H]1CC#N [Example 84a, 2-((2S,4S)-4-(8-chloro-7-(6-chloro-5-methyl-1H-indazol-4-yl)-6-fluoro-4-(5-methyl-2,5-diazaspiro[3.4]octan-2-yl)-1H-imidazo[4,5-c]quinolin-1-yl)-1-((E)-4-methoxybut-2-enoyl)piperidin-2-yl)acetonitrile]
15 | ≤ 100 | ≤ 100 | C=CC(=O)N1CC[C@H](n2nnc3c(OC[C@@H]4CCCN4C)nc4c(F)c(-c5cccc(Cl)c5C)c(Cl)cc4c32)C[C@H]1CC#N [Example 86, 2-((2S,4S)-1-acryloyl-4-(8-chloro-7-(3-chloro-2-methylphenyl)-6-fluoro-4-(((S)-1-methylpyrrolidin-2-yl)methoxy)-1H-[1,2,3]triazolo[4,5-c]quinolin-1-yl)piperidin-2-yl)acetonitrile]
16 | ≤ 100 | ≤ 100 | Cc1c(Cl)cccc1-c1c(Cl)cc2c(nc(OC[C@@H]3CCCN3C)c3nnn([C@H]4CCN(C(=O)/C=C/CN(C)C)[C@H](CC#N)C4)c32)c1F [Example 88, 2-((2S,4S)-4-(8-chloro-7-(3-chloro-2-methylphenyl)-6-fluoro-4-(((S)-1-methylpyrrolidin-2-yl)methoxy)-1H-[1,2,3]triazolo[4,5-c]quinolin-1-yl)-1-((E)-4-(dimethylamino)but-2-enoyl)piperidin-2-yl)acetonitrile]
17 | ≤ 100 | ≤ 100 | C=CC(=O)N1CC[C@H](n2cnc3c(N4CC(N(C)C)C4)nc4c(F)c(-c5c(OC)ncc(Cl)c5C)c(Cl)cc4c32)C[C@H]1CC#N [Example 90, 2-((2S,4S)-1-acryloyl-4-(8-chloro-7-(5-chloro-2-methoxy-4-methylpyridin-3-yl)-4-(3-(dimethylamino)azetidin-1-yl)-6-fluoro-1H-imidazo[4,5-c]quinolin-1-yl)piperidin-2-yl)acetonitrile]
18 | ≤ 100 | ≤ 100 | CC#CC(=O)N1CC[C@H](n2nnc3c(N4CCOCC4=O)nc4c(F)c(-c5cccc(Cl)c5C)c(Cl)cc4c32)C[C@H]1CC#N [Example 91, 2-((2S,4S)-1-(but-2-ynoyl)-4-(8-chloro-7-(3-chloro-2-methylphenyl)-6-fluoro-4-(3-oxomorpholino)-1H-[1,2,3]triazolo[4,5-c]quinolin-1-yl)piperidin-2-yl)acetonitrile]
19 | ≤ 100 | ≤ 100 | CC#CC(=O)N1CC[C@H](n2nnc3c(N4CCCCC4=O)nc4c(F)c(-c5cccc(Cl)c5C)c(Cl)cc4c32)C[C@H]1CC#N [Example 93, 2-((2S,4S)-1-(but-2-ynoyl)-4-(8-chloro-7-(3-chloro-2-methylphenyl)-6-fluoro-4-(2-oxopiperidin-1-yl)-1H-[1,2,3]triazolo[4,5-c]quinolin-1-yl)piperidin-2-yl)acetonitrile]
20 | ≤ 100 | ≤ 100 | CC#CC(=O)N1CC[C@H](n2nnc3c(O[C@@H](C)CN(C)C)nc4c(F)c(-c5cccc(Cl)c5C)c(Cl)cc4c32)C[C@H]1CC#N [Example 94, 2-((2S,4S)-1-(but-2-ynoyl)-4-(8-chloro-7-(3-chloro-2-methylphenyl)-4-(((S)-1-(dimethylamino)propan-2-yl)oxy)-6-fluoro-1H-[1,2,3]triazolo[4,5-c]quinolin-1-yl)piperidin-2-yl)acetonitrile]

Reference: patent publication US20210269434A1, “TRICYCLIC COMPOUNDS AS INHIBITORS OF KRAS” (Incyte Corporation, priority 2020, published 2021)
